The target of the test is T1, human IL-23R (Homo sapiens, UniProt Q5VWK5).
T1 sequence (Q5VWK5 22-629): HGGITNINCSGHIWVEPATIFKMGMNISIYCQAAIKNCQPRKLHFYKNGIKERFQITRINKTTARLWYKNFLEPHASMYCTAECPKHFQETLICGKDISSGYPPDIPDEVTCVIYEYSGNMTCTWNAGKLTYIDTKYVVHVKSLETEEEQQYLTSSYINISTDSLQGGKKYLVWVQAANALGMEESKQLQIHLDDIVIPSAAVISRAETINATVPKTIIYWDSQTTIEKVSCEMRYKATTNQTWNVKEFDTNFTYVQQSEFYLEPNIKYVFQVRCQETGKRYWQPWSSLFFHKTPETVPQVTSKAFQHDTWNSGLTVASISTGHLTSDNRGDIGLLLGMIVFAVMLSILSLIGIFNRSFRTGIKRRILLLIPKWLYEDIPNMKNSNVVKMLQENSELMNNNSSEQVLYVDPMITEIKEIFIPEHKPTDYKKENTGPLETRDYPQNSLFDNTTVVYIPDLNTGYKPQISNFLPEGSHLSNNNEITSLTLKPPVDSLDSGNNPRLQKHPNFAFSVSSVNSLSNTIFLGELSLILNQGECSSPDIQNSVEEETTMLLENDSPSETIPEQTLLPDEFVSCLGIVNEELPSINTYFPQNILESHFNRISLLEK
The experiment in a line: biochemical. To be noted: for Emax: read-out: % displacement (hIL-23R NIuc). The source says: The compound binding affinity for IL-23R was estimated by the ability of compounds to displace a fluorophore-labelled reference compound from the human IL-23R. The assay principle relies on Bioluminescence Resonance Energy Transfer (BRET) between a fluorophore-labelled reference compound binding to the IL-23R part of a fusion protein consisting of the IL-23R fused to a Nanoluc luciferase enzyme (Nanoluc). The Nanoluc is placed in the N-terminus in close proximity to the binding domain of the ligand. Upon close proximity between the fluorophore of the fluorophore-labelled compound and the Nanoluc of the fusion protein, bioluminescence energy generated from conversion of a Nanoluc substrate, is transferred to the fluorophore resulting in an increase in BRET. In presence of an unlabelled compound, the unlabelled compound displaces the fluorophore-labelled peptide from its binding site resulting in a decrease in BRET. The concentration for which half of the fluorophore-labelled peptide is displaced by the unlabelled compound depends on the affinity of the compound for the IL-23R, and is termed the IC50 concentration.
The plasmid also contained a gene to confer resistance for the antibiotic hygromycin. A cell line stably expressing the Nluc-IL23R fusion protein was generated by transfection of HEK293 cells with the expression plasmid and selected with hygromycin for 3 weeks in Growth medium consisting of DMEM w/ Glutamax-I containing, 10% V/V FBS, 1% V/V P/S, 1 mM Sodium Pyruvate, and 1X NEAA, and 0.3 mg/mL hygromycin. The remaining cells were propagated and considered a stable expressing Nluc-IL23R fusion protein pool clone.
Cells expressing the Nluc-IL23R fusion protein were expanded in Growth medium and membranes prepared by homogenization of a cell pellet from 18 T175 flasks (4 °C in subsequent steps). The cell pellet was lysed Tris 10 mM, 7.5, 1 mM EDTA and protease inhibitors (Complete, Roche) and homogenized using a 15 mL glass-dounce by 50 strokes. The homogenate was spun at spin @1500 rpm for 10 min, the supernatant transferred to SV-34 tubes and spun at 40000g for 20 min at 4 °C to pellet the crude membranes. The supernatant was then removed, the pellet resuspended in 5 mL buffer containing 50 mM HEPES pH 7.4, 5 mM EGTA, and 5 mM MgCl2, and homogenized. Aliquots of the resuspended and homogenized membranes containing the Nluc-IL23R fusion protein were stored at -80 °C until use.
The plate was sealed with light impermeable plate seals, and incubated on an orbital shaker 400 rpm for 2 hours at room temperature. To determine the BRET ratio, the plate seal was removed and 25 µL of the Nanoluc substrate (Promega N1572) diluted 1:500 was added to each well and incubated for 1-2 minutes on an orbital shaker at 400 rpm. […] The BRET ratio was calculated as the fluorescence from the TAMRA/nanoluc bioluminescence.
Compound potency (IC50) and maximal displacement (% displacement) were estimated by computer-aided curve fitting using a 4-parameter logistic (4PL) non-linear model. […]
In this application, the inventors provide the data as IC50 values.

Each structure is given as a SMILES string. *1 amine or outer side, *2 acyl side, *3 side chain or, on linkers, in order; H or OH if unused. Where a SMILES comes first, the peptide text is derived from it. Bridges are numbered along the chain shown (N, C = ends). [ ]: non-standard residue; d: D form. X23 = O=C(CCCCCc1cccnc1)N[C@@H](CCN[*:2])C(=O)[*:1]; Trp(1-Me) = Cn1cc(C[C@H](N)C(=O)O)c2ccccc21; Phe(4-Me) = Cc1ccc(C[C@H](N)C(=O)O)cc1; 2Nal = N[C@@H](Cc1ccc2ccccc2c1)C(=O)O; AEF = NCCOc1ccc(C[C@H](N)C(=O)O)cc1; X1 = O=C(Cc1ccc(CN[*:1])cc1)[*:2]; 3Pal = N[C@@H](Cc1cccnc1)C(=O)O; Aad = N[C@@H](CCCC(=O)O)C(=O)O; αMeL = CC(C)C[C@](C)(N)C(=O)O; CH2COCH2 = O=C(C[*:1])C[*:2]; dOrn = NCCC[C@@H](N)C(=O)O; NMeS = CN[C@@H](CO)C(=O)O; Dab = NCC[C@H](N)C(=O)O; βAla = NCCC(=O)O

By IC50 is commonly meant the concentration at which inhibition is half-maximal. A low value points to greater potency in that assay.

With `CC[C@H](C)[C@@H]1NC(=O)[C@@H]2CCCCNC(=O)CC[C@@H](C(=O)N[C@@H](CCN)C(=O)NCCCc3cccnc3)NC(=O)[C@](C)(CC(C)C)NC(=O)[C@H](Cc3ccc4ccccc4c3)NC(=O)[C@H](Cc3ccc(OCCN)cc3)NC(=O)[C@H](CCC(=O)N2)NC(=O)[C@H](CCC(N)=O)NC(=O)[C@H](Cc2c[nH]c3ccccc23)NC(=O)[C@H](C(C)C)NC1=O` [Compound 67, K(1c)(6c)^†IVWQE(6c)[Y(2-aminoethoxy)][2-Nal][2-Me-Leu]E(1c)[Dab]-[NH-3-(pyridin-3-yl)propyl]], the IC50 came to 2.6 nM and the Emax was 102%.

`CC[C@H](C)[C@@H]1NC(=O)[C@@H]2CCCCNC(=O)CC[C@@H](C(=O)N3CCC[C@H]3C(=O)N[C@@H](Cc3cccnc3)C(=O)NC)NC(=O)[C@](C)(CC(C)C)NC(=O)[C@H](Cc3ccc4ccccc4c3)NC(=O)[C@H](Cc3ccc(OCCN)cc3)NC(=O)[C@H](CCC(=O)N2)NC(=O)[C@H](CCC(N)=O)NC(=O)[C@H](Cc2c[nH]c3ccccc23)NC(=O)[C@H](C(C)C)NC1=O` [Compound 63, K(1c)(6c)^†IVWQE(6c)[Y(2-aminoethoxy)][2-Nal][2-Me-Leu]E(1c)P[3-(3-Pyridyl)-Ala]-[NHMe]] (KIVWQE[AEF][2Nal][αMeL]EP[3Pal]-NHMe; lactam 1-10, N-6): the “% displacement (hIL-23R NIuc)” value worked out at 98% and half-maximal inhibition (IC50) was put at 150 nM.

On to `CNC(=O)[C@H](Cc1cccnc1)NC(=O)[C@H](CCN)NC(=O)[C@@H]1CCC(=O)NCCCC[C@@H]2NC(=O)CC[C@H](NC(=O)[C@H](CCC(N)=O)NC(=O)[C@H](Cc3c[nH]c4ccccc34)NC(=O)CCNC2=O)C(=O)N[C@@H](CC2CC2)C(=O)N[C@@H](Cc2ccc3ccccc3c2)C(=O)N[C@@](C)(CC(C)C)C(=O)N1` [Compound 82, K(1c)(6c)^†[3-Aminopropanoyl]WQE(6c)[Cyclopropyl-Ala][2-Nal][2-Me-Leu]E(1c)[Dab][3-(3-Pyridyl)-Ala]-[NHMe]], for which the IC50 is 3.7 nM and the Emax came out at 101%.

For `CNC(=O)[C@H](Cc1cccnc1)NC(=O)[C@H](CCN)NC(=O)[C@@H]1CCC(=O)NCC[C@@H]2NC(=O)CC[C@H](NC(=O)[C@H](CCC(N)=O)NC(=O)[C@H](Cc3c[nH]c4ccccc34)NC2=O)C(=O)N[C@@H](Cc2ccc(OCCN)cc2)C(=O)N[C@@H](Cc2ccc3ccccc3c2)C(=O)N[C@@](C)(CC(C)C)C(=O)N1` [Compound 94, [Dab](1c)(6c)^†WQE(6c)[Y(2-aminoethoxy)][2-Nal][2-Me-Leu]E(1c)[Dab][3-(3-Pyridyl)-Ala]-[NHMe]], the IC50 was determined as 3.7 nM and the Emax worked out at 99%.

In the case of `CNC(=O)[C@H](Cc1cccnc1)NC(=O)[C@H](CCN)NC(=O)[C@@H]1CCC(=O)NCCCC[C@@H]2NC(=O)CCC[C@H](NC(=O)[C@H](CCC(N)=O)NC(=O)[C@H](Cc3c[nH]c4ccccc34)NC(=O)[C@H]([C@@H](C)O)NC2=O)C(=O)N[C@@H](Cc2ccc(OCCN)cc2)C(=O)N[C@@H](Cc2ccc3ccccc3c2)C(=O)N[C@@](C)(CC(C)C)C(=O)N1` [Compound 38, K(1c)(6c)^†TWQ[hGlu](6c)[Y(2-aminoethoxy)][2-Nal][2-Me-Leu]E(1c)[Dab][3-(3-Pyridyl)-Ala]-[NHMe]], half-maximal inhibition (IC50) was put at 1.5 nM and the Emax came out at 101%.

For the molecule `CNC(=O)[C@H](Cc1cccnc1)NC(=O)[C@H](CCN)NC(=O)[C@@H]1CCC(=O)NCCCC[C@@H]2NC(=O)CC[C@H](NC(=O)[C@H](CCC(N)=O)NC(=O)[C@H](Cc3c[nH]c4ccccc34)NC(=O)C[C@H]([C@@H](C)O)NC2=O)C(=O)N[C@@H](Cc2ccc(OCCN)cc2)C(=O)N[C@@H](Cc2ccc3ccccc3c2)C(=O)N[C@@](C)(CC(C)C)C(=O)N1` [Compound 97, K(1c)(6c)^†[beta-hThr]WQE(6c)[Y(2-aminoethoxy)][2-Nal][2-Me-Leu]E(1c)[Dab][3-(3-Pyridyl)-Ala]-[NHMe]], the “% displacement (hIL-23R NIuc)” value came out at 101% and it took 0.061 nM to reach half-maximal inhibition (IC50).

With `Cc1ccc(C[C@@H]2NC(=O)[C@@H]3CCC(=O)N[C@@H](CCCCNC(=O)[C@@H](NC(=O)CCCCCc4cccnc4)CCNC(=O)[C@](C)(CC(C)C)NC(=O)[C@H](Cc4ccc5ccccc5c4)NC2=O)C(=O)N[C@@H]([C@@H](C)O)C(=O)N[C@@H](C(C)C)C(=O)N[C@@H](Cc2c[nH]c4ccccc24)C(=O)N[C@@H](CCC(N)=O)C(=O)N3)cc1` [Compound 25, K(1c)(6c)^†TVWQE(6c)[Y(2-aminoethoxy)][2-Nal][2-Me-Leu][iso-Dab](1c)^‡-[6-(3-pyridyl)hexanoyl]] (KTVWQE[Phe(4-Me)][2Nal][αMeL]; linker 1-C via X23; lactam N-6), the Emax was determined as 91%.

Take `CNC(=O)[C@H](Cc1cccnc1)NC(=O)[C@H](CCN)NC(=O)[C@@H]1CCC(=O)NCCCC[C@@H]2NC(=O)CC[C@H](NC(=O)[C@H](CCC(N)=O)NC(=O)[C@H](Cc3cn(C)c4ccccc34)NC(=O)CCNC2=O)C(=O)N[C@@H](Cc2ccc(OCCN)cc2)C(=O)N[C@@H](Cc2ccc3ccccc3c2)C(=O)N[C@@](C)(CC(C)C)C(=O)N1` [Compound 79, K(1c)(6c)^†[3-Aminopropanoyl][1-Me-Trp]QE(6c)[Y(2-aminoethoxy)][2-Nal][2-Me-Leu]E(1c)[Dab][3-(3-Pyridyl)-Ala]-[NHMe]] (K[βAla][Trp(1-Me)]QE[AEF][2Nal][αMeL]E[Dab][3Pal]-NHMe; lactam 1-9, N-5): the half-maximal inhibitory concentration (IC50) stood at 0.02 nM and the Emax stood at 100%.

`CC[C@H](C)[C@@H]1NC(=O)[C@@H]2CCCCNC(=O)CC[C@@H](C(=O)N[C@@H](CCN)C(=O)N[C@H](Cc3cccnc3)C(N)=O)NC(=O)[C@](C)(C(C)C)NC(=O)[C@H](Cc3ccc4ccccc4c3)NC(=O)[C@H](Cc3ccc(C)cc3)NC(=O)[C@H](CCC(=O)N2)NC(=O)[C@H](CCC(N)=O)NC(=O)[C@H](Cc2c[nH]c3ccccc23)NC(=O)[C@H](C(C)C)NC1=O` [Compound 18, K(1c)(6c)^†IVWQE(6c)[F(4-Me)][2-Nal][2-Me-Val]E(1c)[Dab][{d}3-(3-Pyridyl)-Ala]-[NH2]]: the “% displacement (hIL-23R NIuc)” value was 100% and 8.5 nM corresponded to half-maximal inhibition (IC50).

For the molecule `CC(C)C[C@]1(C)NC(=O)[C@H](Cc2ccc3ccccc3c2)NC(=O)[C@H](Cc2ccc(OCCN)cc2)NC(=O)[C@@H]2CC(=O)N[C@H](CCCNC(=O)CCC[C@@H](C(=O)N[C@@H](CCN)C(=O)N[C@@H](Cc3cccnc3)C(N)=O)NC1=O)C(=O)N[C@@H]([C@@H](C)O)C(=O)N[C@@H](C(C)C)C(=O)N[C@@H](Cc1c[nH]c3ccccc13)C(=O)N[C@@H](CCC(N)=O)C(=O)N2` [Compound 8, [{d}Orn](1c)(6c)^†TVWQD(6c)[Y(2-aminoethoxy)][2-Nal][2-Me-Leu][hGlu](1c)[Dab][3-(3-Pyridyl)-Ala]-[NH2]] ([dOrn]TVWQD[AEF][2Nal][αMeL][Aad][Dab][3Pal]-NH2; lactam 1-10, N-6), the midpoint of inhibition, the IC50, lay at 0.52 nM.

As to `CC(C)C[C@]1(C)NC(=O)[C@H](Cc2ccc3ccccc3c2)NC(=O)[C@H](Cc2ccc(OCCN)cc2)NC(=O)[C@@H]2CSCC(=O)CSC[C@H](NC(=O)[C@H](CO)N(C)C(=O)Cc3ccc(cc3)CNC(=O)CC[C@@H](C(=O)N[C@@H](CCN)C(N)=O)NC1=O)C(=O)N[C@@H](Cc1c[nH]c3ccccc13)C(=O)N[C@@H](CCC(N)=O)C(=O)N2` [Ref 141, [4-Aminomethyl-phenylacetyl](1c)*[N-Me-Ser]C(2a)WQC(2a)[Y(2-aminoethoxy)][2-Nal][2-Me-Leu]E(1c)[Dab]-[NH2], reference compound] ([X1][NMeS]CWQC[AEF][2Nal][αMeL]E[Dab]-NH2; linker 3-6 via CH2COCH2; lactam N-10), the “% displacement (hIL-23R NIuc)” value is 102% and the IC50 was determined as 3.5 nM.

For the origin of these results see EP4471048A1, “PEPTIDE INHIBITORS OF INTERLEUKIN-23 RECEPTOR” (Zealand Pharma A/S, priority 2023, dated 2024).
